Test results published in US20160008419A1, “Methods and Compositions for the Prevention and Treatment of Parasitic Disease” (THE BOARD OF TRUSTEES OF THE LELAND STANFORD JUNIOR …, priority 2013, published 2016).
Entries after “also recorded” stand apart in the source; their conditions may differ. Where two headings read alike, the source gives them in different places.

What was measured:
[1] = tested on: parasites in human RBC culture; assay: Parasite growth (parasitemia) in human RBC culture with ALDH inhibitor; format: cell-based
Protocol: FIG. 8 depicts the effect of ALDH inhibitor, disulfiram, on parasitemia in RBC. Parasitemia were determined 24 and 72 hours after the addition of disulfiram at the indicated concentrations.
Disulfirm and diadzin are used as deterrents for treatment of alcoholism, and as such, are both safe and effective ALDH2 inhibitors. […] As a negative control, pyrazole, an alcohol dehydrogenase inhibitor, at a concentration as high as 500 μM has no effect on the growth of parasites.

P. falciparum [2] = assay: Parasitemia in P. falciparum infected human red blood cells treated with acetaldehyde; format: cell-based, Plasmodium falciparum; conditions: acetaldehyde μM range (low levels); Geimsa stain and flow cytometry; preliminary data
Protocol: Parasitemia counts were determined by Geimsa stain and FACS.
[…] Exp. Res., 22: 1161-1164). […] Further, μM concentrations of 4HNE are also very common under conditions of infection, inflammation or fever (e.g. during the chill-fever cycles of malaria).

[3] = 2.5 alcoholic drinks (0.5 g/kg body weight), cited from earlier work
P. falciparum [4] = conditions: cited from earlier work
[5] = after drinking alcohol; cited from earlier work
P. berghei = conditions: wild type mice; expected
Source text: In this model, infections with P. berghei ANKA and NK65 strains yield highly reproducible peripheral parasitemias and gametocytemias that are infectious to An. stephensi. […] The ALDH2*2 mouse is on a C57/BL6 background, a mouse strain that is the most susceptible among common mouse strains to hepatic infection with P. berghei (Scheller L. F., et al. Susceptibility of different strains of mice to hepatic infection with Plasmodium berghei. Infect Immun. 1994; 62(11):4844-7). […] On the day of infection, mice in each of the experimental groups are infected by bite of An. stephensi (5-10 mosquitoes/mouse).
During P. berghei infection, liver stages and accompanying pathology are evident by 39 hr post-infection (Scheller L. F., et al. Susceptibility of different strains of mice to hepatic infection with Plasmodium berghei. Infect Immun. 1994; 62(11):4844-7), peripheral parasitemia is evident by 4-5 days post-infection, and gametocytemia rises with peripheral parasitemia to become infectious to An. stephensi. Based on these parameters, mice that are not sacrificed within 39-48 hrs post-infection to assess liver stage parasites and pathology are examined daily for peripheral parasitemia beginning at 3 days post-infection.

[6] = expected

tetraethylthioperoxydicarbonic diamide [disulfiram]
IC50 ([1]; human RBC culture, in the absence of alcohol, read-out: inhibition of parasite growth IC50): 9.7 µM

CC=O [acetaldehyde]
growth of P. falciparum / parasitemia in human RBCs (P. falciparum [2]): inhibit growth; also recorded: reduces parasitemia
blood acetaldehyde level ([3]; human ALDH2*2 heterozygotic subjects): 60 µM
blood acetaldehyde level ([3]; subjects with wild type enzyme): ~2 µM
toxicity to malaria parasites in vitro (P. falciparum [4]): toxic
acetaldehyde concentration in human saliva [5]: ≥ 450 µM

CCO [ethanol]
parasite infection, histopathology, or transmission due to ethanol treatment (P. berghei): no significant differences
difference in blood acetaldehyde level between wild type and ALDH2*2 mutant animals ([6]; 1.5 to 4.0 g/kg acute ethanol administration): at least 5 fold
duration of the difference in blood acetaldehyde level ([6]; after single dose of ethanol): 4 to 6 h

c1cn[nH]c1 [pyrazole]
effect on the growth of parasites ([1]; negative control, concentration as high as 500 μM): no effect

CCCCCC(O)C=CC=O (stereo not drawn) [4HNE, 4-Hydroxy-2-nonenal]
reduction of growth of P. falciparum relative to controls (P. falciparum [4]; 50-100 μM): 50-100%
toxicity to malaria parasites in vitro (P. falciparum [4]): toxic
